These results are taken from patent US8362000B2, “Azetidinyl diamides as monoacylglycerol lipase inhibitors” (Janssen Pharmaceutica NV, priority 2009, dated 2013).

One assay addresses T1, mutant MGL (Homo sapiens, UniProt Q99685, L169S/L176S).
T1 sequence (Q99685 1-303 L169S/L176S): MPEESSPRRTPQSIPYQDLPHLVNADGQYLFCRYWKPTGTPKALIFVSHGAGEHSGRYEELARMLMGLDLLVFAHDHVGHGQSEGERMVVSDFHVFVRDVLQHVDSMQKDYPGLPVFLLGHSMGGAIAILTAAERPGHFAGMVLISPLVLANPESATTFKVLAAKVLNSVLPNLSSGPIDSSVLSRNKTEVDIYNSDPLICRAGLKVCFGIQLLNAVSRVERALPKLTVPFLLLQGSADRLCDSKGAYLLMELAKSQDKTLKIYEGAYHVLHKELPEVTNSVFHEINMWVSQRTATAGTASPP
Briefly: MGL ThermoFluor assay - mutant. The conditions noted are these: ThermoFluor concentration-response, read-out: MGL mutant ThermoFluor Kd. Format: binding.
What is called Kd is the constant that tells how readily two partners part at equilibrium. For the compound `CN(C)c1ccc(C(=O)N2CC(N3CCN(C(=O)c4ccccc4)CC3)C2)cc1` [Cpd 31, N,N-Dimethyl-4-({3-[4-(phenylcarbonyl)piperazin-1-yl]azetidin-1-yl}carbonyl)aniline], the Kd was found to be 1430 nM.
On to `N#Cc1ccc(-c2ccc(C(=O)N3CC(N4CCN(C(=O)c5cscn5)CC4)C3)cc2)cc1` [Cpd 171], for which the Kd was found to be 708 nM.
On the same count and under the same terms, for `O=C(c1ccc(-c2ccccc2)cc1)N1CCN(C2CN(C(=O)c3nccs3)C2)C(c2ccccc2)C1` (centres unmarked) [Cpd 1401, 4-(Biphenyl-4-ylcarbonyl)-2-phenyl-1-[1-(1,3-thiazol-2-ylcarbonyl)azetidin-3-yl]piperazine] the value was 1250 nM; for `O=C(c1ccc(CSc2cccc(Cl)c2)cc1)N1CC(N2CCN(C(=O)c3nccs3)CC2)C1` [Cpd 454], 14.7 nM; for `CC(=O)Oc1ccc(C(=O)N2CC(N3CCN(C(=O)c4nccs4)CC3)C2)cc1` [Cpd 471, 4-({3-[4-(1,3-Thiazol-2-ylcarbonyl)piperazin-1-yl]azetidin-1-yl}carbonyl)phenyl acetate], 2500 nM.
Take `Cc1c(-c2ccccc2)oc2c(C(=O)N3CC(N4CCN(C(=O)c5ccccc5)CC4)C3)cccc2c1=O` [Cpd 107, 3-Methyl-2-phenyl-8-({3-[4-(phenylcarbonyl)piperazin-1-yl]azetidin-1-yl}carbonyl)-4H-chromen-4-one]: the Kd stood at 556 nM.
Still for that read-out and setting: for `O=C(c1ccc(-c2cccc(Cl)c2)cc1)N1CC(N2CCN(C(=O)c3nccs3)CC2)C1` [Cpd 162, 1-{1-[(3′-Chlorobiphenyl-4-yl)carbonyl]azetidin-3-yl}-4-(1,3-thiazol-2-ylcarbonyl)piperazine] the value was 0.67 nM; for `O=C(c1ccccc1)N1CCN(C2CN(C(=O)c3ccc(CNc4cccc(Cl)c4)cc3)C2)CC1` [Cpd 549], 60 nM.
Same read-out and setting: the figure for `N#Cc1cccc(-c2ccc(C(=O)N3CC(N4CCN(C(=O)c5ccccc5)CC4)C3)cc2)c1` [Cpd 76, 4′-({3-[4-(Phenylcarbonyl)piperazin-1-yl]azetidin-1-yl}carbonyl)biphenyl-3-carbonitrile] is 333 nM; for `O=C(c1ccccc1)N1CCN(C2CN(C(=O)c3ccc(-c4ccccc4)cc3)C2)C(CO)C1` (centres unmarked) [Cpd 458, {1-[1-(Biphenyl-4-ylcarbonyl)azetidin-3-yl]-4-(phenylcarbonyl)piperazin-2-yl}methanol] it is 6670 nM; for `O=C(c1ccccc1)C1CCC(C(=O)N2CC(N3CCN(C(=O)c4ccccc4)CC3)C2)CC1` (centres unmarked) [Cpd 108, Phenyl[4-({3-[4-(phenylcarbonyl)piperazin-1-yl]azetidin-1-yl}carbonyl)cyclohexyl]methanone] it is 1250 nM.
The same measure, in the same setting: the figure for `Cc1nc(-c2ccc(F)cc2)sc1C(=O)N1CC(N2CCN(C(=O)c3ccccc3)CC2)C1` [Cpd 621, 1-(1-{[2-(4-Fluorophenyl)-4-methyl-1,3-thiazol-5-yl]carbonyl}azetidin-3-yl)-4-(phenylcarbonyl)piperazine] is 263 nM; for `Cc1oc(-c2ccccc2)cc1C(=O)N1CC(N2CCN(C(=O)c3ccccc3)CC2)C1` [Cpd 623, 1-{1-[(2-Methyl-5-phenylfuran-3-yl)carbonyl]azetidin-3-yl}-4-(phenylcarbonyl)piperazine] it is 1000 nM.
In the case of `O=C(c1ccc(Oc2ccc(Cl)cc2)cc1)N1CC(N2CCN(C(=O)c3nccs3)CC2)C1` [Cpd 420, 1-(1-{[4-(4-Chlorophenoxy)phenyl]carbonyl}azetidin-3-yl)-4-(1,3-thiazol-2-ylcarbonyl)piperazine], the Kd was 5 nM.
Consider `O=C(c1cc(F)cc(Br)c1)N1CC(N2CCN(C(=O)c3nccs3)CC2)C1` [Cpd 912], for which the Kd amounted to 1320 nM.
On to `COc1ccc(-c2ccc(C(=O)N3CC(N4CCN(C(=O)c5ccccc5)CC4)C3)cc2)cc1` [Cpd 34, 1-{1-[(4′-Methoxybiphenyl-4-yl)carbonyl]azetidin-3-yl}-4-(phenylcarbonyl)piperazine], for which the Kd turned out to be 588 nM.
Regarding `O=C(c1cc(F)cc(Br)c1)N1CC(N2CCN(C(=O)c3cscn3)CC2)C1` [Cpd 926], the Kd was 9440 nM.
Consider `Cc1nc(COc2ccc(Cl)cc2)sc1C(=O)N1CC(N2CCN(C(=O)c3cscn3)CC2)C1` [Cpd 966], for which the Kd is 334 nM.
On the same count and under the same terms, the figure for `O=C(c1ccccc1)N1CCN(C2CN(C(=O)c3ccc(O[C@H]4CCN(C(=O)N5CCCC5)C4)c(I)c3)C2)CC1` [Cpd 450, 1-{1-[(3-Iodo-4-{[(3S)-1-(pyrrolidin-1-ylcarbonyl)pyrrolidin-3-yl]oxy}phenyl)carbonyl]azetidin-3-yl}-4-(phenylcarbonyl)piperazine] is 50 nM.
As for `Cc1nc(-c2ccc(Cl)cc2)sc1C(=O)N1CC(N2CCN(C(=O)c3ccccc3)CC2)C1` [Cpd 619], the Kd amounted to 172 nM.
In the case of `O=C(c1ccccc1)N1CCN(C2CN(C(=O)c3nc(-c4ccccc4)oc3C(F)(F)F)C2)CC1` [Cpd 625, 1-(Phenylcarbonyl)-4-(1-{[2-phenyl-5-(trifluoromethyl)-1,3-oxazol-4-yl]carbonyl}azetidin-3-yl)piperazine], the Kd was more than 31200 nM.
Regarding `O=C(c1ccccc1)N1CCN(C2CN(C(=O)c3cccnc3Oc3ccc(Cl)cc3)C2)CC1` [Cpd 474, 1-(1-{[2-(4-Chlorophenoxy)pyridin-3-yl]carbonyl}azetidin-3-yl)-4-(phenylcarbonyl)piperazine], the Kd was found to be 5000 nM.
Same read-out and setting: for `O=C(c1ccccc1)N1CCN(C2CN(C(=O)c3ccccc3C3CCNC3)C2)CC1` (centres unmarked) [Cpd 456, 1-(Phenylcarbonyl)-4-{1-[(2-pyrrolidin-3-ylphenyl)carbonyl]azetidin-3-yl}piperazine] the value was more than 76700 nM.
The same measure, in the same setting: the figure for `O=C(c1cccc(-c2cccc(Br)n2)c1)N1CC(N2CCN(C(=O)c3nccs3)CC2)C1` [Cpd 151, 1-(1-{[3-(6-Bromopyridin-2-yl)phenyl]carbonyl}azetidin-3-yl)-4-(1,3-thiazol-2-ylcarbonyl)piperazine] is 25 nM.
Same read-out and setting: for `O=C(c1ccccc1)N1CCN(C2CN(C(=O)c3ccc(N4CCCC4)cc3)C2)CC1` [Cpd 29, 1-(Phenylcarbonyl)-4-{1-[(4-pyrrolidin-1-ylphenyl)carbonyl]azetidin-3-yl}piperazine] the value was 100 nM.
As for `O=C(c1ccccc1)N1CCN(C2CN(C(=O)c3ccc(Oc4ccc(Cl)cc4)cc3)C2)CC1` [Cpd 425], the Kd was 200 nM.
For the compound `O=C(c1ccccc1)N1CCN(C2CN(C(=O)c3ccc(Oc4ccc(Br)cn4)cc3)C2)CC1` [Cpd 532], the Kd was 2330 nM.
Still for that read-out and setting: the figure for `CSc1ccc(C(=O)N2CC(N3CCN(C(=O)c4ccccc4)CC3)C2)cc1` [Cpd 470, 1-(1-{[4-(Methylsulfanyl)phenyl]carbonyl}azetidin-3-yl)-4-(phenylcarbonyl)piperazine] is 2940 nM.
`O=C(c1ccccc1)N1CCN(C2CN(C(=O)c3ccc(SCc4ccc(Cl)cc4)cc3)C2)CC1` [Cpd 418]: the dissociation constant Kd stood at 500 nM.
The same measure, in the same setting: the figure for `O=C(c1ccccc1)N1CCN(C2CN(C(=O)c3ccc(CSc4cccc(Cl)c4)cc3)C2)CC1` [Cpd 551] is 180 nM; for `O=C(c1ccccc1)N1CCN(C2CN(C(=O)c3ccc(Oc4ccccn4)c(F)c3)C2)CC1` [Cpd 537] it is 3330 nM.

The same assay, now with this note: ThermoFluor thermal stability binding assay, read-out: MGL mutant ThermoFluor Kd.
Regarding `O=C(c1ccccc1)N1CCN(C2CN(C(=O)c3ccc(OCc4cccnc4)c(Cl)c3)C2)CC1` [Cpd 409], the Kd amounted to 2030 nM.
On the same count and under the same terms, for `O=C(c1ccc(-c2ccccc2)cc1)N1CC(N2CCN(C(=O)C3CCCC3)CC2)C1` [Cpd 1398] the value was 182 nM; for `O=C(c1ccccc1)N1CCN(C2CN(C(=O)c3ccc(OCc4ccc5ccccc5n4)cc3)C2)CC1` [Cpd 560], 652 nM.
Regarding `CC(=O)N1c2ccc(Br)cc2CCC1C(=O)N1CC(N2CCN(C(=O)c3nccs3)CC2)C1` (centres unmarked) [Cpd 376, 1-Acetyl-6-bromo-2-({3-[4-(1,3-thiazol-2-ylcarbonyl)piperazin-1-yl]azetidin-1-yl}carbonyl)-1,2,3,4-tetrahydroquinoline], the Kd is 7140 nM.
`O=C(c1cscn1)N1CCN(C2CN(C(=O)c3csc(-c4cc(Cl)cc(Cl)c4)n3)C2)CC1` [Cpd 1395]: the Kd stood at 1810 nM.
In the case of `O=C(c1ccc(OCc2ccc(Cl)c(Cl)c2)c(Cl)c1)N1CC(N2CCN(C(=O)c3nccs3)CC2)C1` [Cpd 404], the Kd stood at 1.7 nM.
Still for that read-out and setting: for `COc1cc(C(=O)N2CC(N3CCN(C(=O)c4ccccc4)CC3)C2)ccc1-c1cccc(C(F)(F)F)c1` [Cpd 249, 1-(1-{[2-Methoxy-3′-(trifluoromethyl)biphenyl-4-yl]carbonyl}azetidin-3-yl)-4-(phenylcarbonyl)piperazine] the value was 10 nM; for `Cc1oc(-c2ccccc2)cc1C(=O)N1CC(N2CCN(C(=O)c3cscn3)CC2)C1` [Cpd 1396], 317 nM; for `O=C(c1ccc2c(c1)CCCN2c1ncccn1)N1CC(N2CCN(C(=O)c3nccs3)CC2)C1` [Cpd 375, 1-Pyrimidin-2-yl-6-({3-[4-(1,3-thiazol-2-ylcarbonyl)piperazin-1-yl]azetidin-1-yl}carbonyl)-1,2,3,4-tetrahydroquinoline], 229 nM.
On to `O=C(c1cscn1)N1CCN(C2CN(C(=O)c3cccc4nc(-c5cccc(Cl)c5)[nH]c34)C2)CC1` [Cpd 1389], for which the Kd was 422 nM.
Same read-out and setting: for `Cc1cc(C(=O)N2CC(N3CCN(C(=O)c4cscn4)CC3)C2)ccc1-c1cccc(C(F)(F)F)c1` [Cpd 242, 1-(1-{[2-Methyl-3′-(trifluoromethyl)biphenyl-4-yl]carbonyl}azetidin-3-yl)-4-(1,3-thiazol-4-ylcarbonyl)piperazine] the value was 4 nM; for `CS(=O)(=O)c1cccc(-c2ccc(C(=O)N3CC(N4CCN(C(=O)c5ccccc5)CC4)C3)cc2)c1` [Cpd 231, 1-(1-{[3′-(Methylsulfonyl)biphenyl-4-yl]carbonyl}azetidin-3-yl)-4-(phenylcarbonyl)piperazine], 143 nM.
Regarding `O=C(c1ccccc1)N1CCN(C2CN(C(=O)c3ccc(OCc4cccc(Cl)c4Cl)c(F)c3)C2)CC1` [Cpd 483], the Kd amounted to 20 nM.
